According to publication PMC3190643 (Journal of medicinal chemistry, 2011):
Counter-ions that a name gives are not always drawn. Like-named read-outs stand apart in the source and are kept apart here.

Legend:
[1] = cited from earlier work
[2] = test system: Salmonella typhimurium Ames II mixed strains (TA7001 to TA7006) and tester strain TA98; test: Ames II mutagenicity assay; details: with and without rat S9 activation, up to 1 mg/mL
in vivo = details: male, C57Bl/6J, mouse, iv
[3] = Metabolic stability in human liver microsomes; assay type: in vitro ADME; details: pH 7.4
[4] = Metabolic stability in rat liver microsomes; assay type: in vitro ADME; details: pH 7.4
[5] = Metabolic stability in mouse liver microsomes; assay type: in vitro ADME; details: calculated from in vitro half-life; for CLint scaled at 100 μM: mouse, microsomes, pH 7.4, CLint,app
[6] = for plasma concentration: IV dose of 3, mice, normalized to 8.13 mg/kg
[7] = biological target: catalytic domain of human recombinant MMP-9 (Homo sapiens, UniProt P14780); details: slow-binding
[8] = biological target: T1, Human recombinant active MMP-2 (Homo sapiens, UniProt P08253); details: slow-binding
T1 sequence (P08253 110-660): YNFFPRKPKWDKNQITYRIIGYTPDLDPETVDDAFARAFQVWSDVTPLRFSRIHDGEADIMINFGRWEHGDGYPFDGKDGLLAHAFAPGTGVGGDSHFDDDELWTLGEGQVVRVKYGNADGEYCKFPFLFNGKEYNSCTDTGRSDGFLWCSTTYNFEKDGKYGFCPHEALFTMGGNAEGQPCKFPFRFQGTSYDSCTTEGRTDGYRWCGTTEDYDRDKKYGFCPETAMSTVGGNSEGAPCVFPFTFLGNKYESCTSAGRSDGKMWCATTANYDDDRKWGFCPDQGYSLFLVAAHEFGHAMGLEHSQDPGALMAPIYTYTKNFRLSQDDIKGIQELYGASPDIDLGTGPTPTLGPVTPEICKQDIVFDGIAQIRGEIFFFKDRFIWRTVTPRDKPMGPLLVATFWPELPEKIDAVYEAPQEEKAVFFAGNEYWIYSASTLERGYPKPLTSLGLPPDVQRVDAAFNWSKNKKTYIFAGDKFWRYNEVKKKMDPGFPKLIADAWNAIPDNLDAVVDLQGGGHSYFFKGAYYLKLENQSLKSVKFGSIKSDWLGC

[9] = biological target: catalytic domain of MMP-14 (Homo sapiens, UniProt P50281); details: slow-binding
[10] = humans; cited from earlier work
[11] = t½ α (distribution half life), IV dose of 5d […], mice
[12] = t½ β (terminal half life), IV dose of 5d […], mice

catalytic domain of human recombinant MMP-9, sequence (P14780 107-444 limits assumed): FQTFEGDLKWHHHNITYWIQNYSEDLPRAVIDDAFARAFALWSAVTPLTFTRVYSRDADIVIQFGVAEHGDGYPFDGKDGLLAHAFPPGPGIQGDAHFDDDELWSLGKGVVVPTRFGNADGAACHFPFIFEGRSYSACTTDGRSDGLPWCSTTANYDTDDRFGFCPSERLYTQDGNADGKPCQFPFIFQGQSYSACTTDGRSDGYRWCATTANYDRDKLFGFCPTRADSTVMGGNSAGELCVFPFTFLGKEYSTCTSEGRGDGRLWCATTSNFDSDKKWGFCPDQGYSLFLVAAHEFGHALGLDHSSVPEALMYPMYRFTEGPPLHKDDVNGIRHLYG

For `O=S(=O)(CC1CS1)c1ccc(Oc2ccccc2)cc1` (stereo not drawn) [Compound 1, (4-phenoxyphenylsulfonyl)methylthiirane], the “intrinsic clearance in the rat” value [1] is listed as 117 mL/min/kg and the “t½ in rat liver microsomes” value [1] is listed as 12.0 min.
For `Nc1ccc(Oc2ccc(S(=O)(=O)CC3CS3)cc2)cc1` (stereo not drawn) [Compound 3, 4-[4-((Thiiran-2-yl)methylsulfonyl)phenoxy]benazamine · HCl salt], the “Ames II mutagenicity response” value [2] was “negative (non-mutagenic)”, the Vd (in vivo) was 0.0125 L and the clearance (in vivo) was 87.5 mL/min/kg. The half-life (in vivo; [11]) was 2.9 min, the half-life (in vivo; [12]) was 69 min and the CLint scaled at 100 μM [3] was under 10 mL/min/kg. The CLint scaled at 100 μM [4] was 60 ± 1.8 mL/min/kg, the “CLint,app” value [5] was 102.8 ± 7.9 mL/min/kg and the CLint scaled at 100 μM [5] was 103 mL/min/kg. For the same molecule, the “time plasma levels were higher than the Ki for MMP-9” value ([6]; male, C57Bl/6J, mouse, in vivo) was 20 min.
For `NCC(=O)Nc1ccc(Oc2ccc(S(=O)(=O)CC3CS3)cc2)cc1` (stereo not drawn) [Compound 5a], the “10^4koff, MMP-9 catalytic domain” value [7] was 6.5 ± 0.6 s^−1, the “10^−3kon, MMP-9 catalytic domain” value [7] was 0.21 ± 0.04 M^−1s^−1 and the “10^4koff, MMP-2” value [8] was 8.2 ± 0.9 s^−1. The “10^−3kon, MMP-2” value [8] was 1.9 ± 0.6 M^−1s^−1.
In the case of `NCCCC[C@H](N)C(=O)Nc1ccc(Oc2ccc(S(=O)(=O)CC3CS3)cc2)cc1` (stereo partly drawn) [Compound 5b], the “10^4koff, MMP-9 catalytic domain” value [7] is reported as 4.2 ± 0.7 s^−1, the “10^−3kon, MMP-9 catalytic domain” value [7] is reported as 0.27 ± 0.04 M^−1s^−1 and the “10^4koff, MMP-2” value [8] is reported as 2.1 ± 0.9 s^−1. For the same molecule, the “10^−3kon, MMP-2” value [8] was 3.4 ± 0.1 M^−1s^−1.
With `N[C@@H](CCC(=O)O)C(=O)Nc1ccc(Oc2ccc(S(=O)(=O)CC3CS3)cc2)cc1` (stereo partly drawn) [Compound 5c] the “10^4koff, MMP-9 catalytic domain” value [7] was 12.0 ± 0.7 s^−1, the “10^−3kon, MMP-9 catalytic domain” value [7] was 0.28 ± 0.02 M^−1s^−1 and the “10^4koff, MMP-2” value [8] was 1.8 ± 1.6 s^−1. For the same molecule, the “10^−3kon, MMP-2” value [8] was 2.5 ± 0.1 M^−1s^−1.
For `N=C(N)NCCC[C@H](N)C(=O)Nc1ccc(Oc2ccc(S(=O)(=O)CC3CS3)cc2)cc1` (stereo partly drawn) [Compound 5d], the “Ames II mutagenicity response” value [2] was “negative (non-mutagenic)”, the Vd (in vivo) was 0.0978 L/kg and the clearance (in vivo) was 58.2 mL/min/kg. It also gave a half-life (in vivo; elimination (terminal) half life t½ β, IV dose of 5d […], mice) of over 240 min, a half-life (in vivo; [11]) of under 1 min and a half-life (in vivo; [12]) of 260 min. The CLint scaled at 100 μM [3] was under 10 mL/min/kg, the CLint scaled at 100 μM [4] was 23.7 ± 1.8 mL/min/kg and the half-life at 100 μM [4] was at least 60 min. The CLint scaled at 100 μM [5] was under 47 mL/min/kg.
With `Nc1ccc(Oc2ccc(S(=O)(=O)CC3CS3)cc2)cc1O` (stereo not drawn) [Compound 13, 2-Amino-5-(4-((thiiran-2-ylmethyl)sulfonyl)phenoxy)phenol] the “10^4koff, MMP-9 catalytic domain” value [7] was 5.3 ± 1.0 s^−1, the “10^−3kon, MMP-9 catalytic domain” value [7] was 1.1 ± 0.1 M^−1s^−1 and the “10^4koff, MMP-14 catalytic domain” value [9] was 7.0 ± 1.6 s^−1. The “10^−3kon, MMP-14 catalytic domain” value [9] was 2.7 ± 0.3 M^−1 s^−1, the “10^4koff, MMP-2” value [8] was 1.4 ± 0.7 s^−1 and the “10^−3kon, MMP-2” value [8] was 1.7 ± 0.1 M^−1s^−1.
In the case of `CC(=O)Nc1ccc(Oc2ccc(S(=O)(=O)CC3CS3)cc2)cc1` (stereo not drawn) [Compound M3], the half-life (in vivo; [11]) is reported as 12 min, the half-life (in vivo; t½ α, IV dose of 3, mice) is reported as 5.1 min and the plasma concentration ([6]; 2-3 min) is reported as 197 ± 61.6 nM. It also gave a plasma concentration ([6]; 4-5 min) of 462 ± 313 nM, a plasma concentration ([6]; 7-8 min) of 192 ± 12.1 nM and a plasma concentration ([6]; 11-12 min) of 150 ± 27.2 nM. The plasma concentration ([6]; 62-66 min) was 27.3 ± 6.28 nM.
For `CC(C)c1cccc(C(C)C)c1O` [propofol], the Vd [10] is given as 12.4 L/kg.
